What all share (assay type): biochemical
In experiment [1] the target is hABHD6 (Homo sapiens (Human), UniProt Q9BV23). In words: Fluorescent assay for hABHD6 (AHMMCE substrate hydrolysis). The conditions noted are these: membrane fraction containing full-length hABHD6, 20 μM AHMMCE; read-out: ABHD6 Inhibition IC50. Here is the method: (§1) Certain compounds were tested for their ABHD6 and dual ABHD6/MGL inhibitory activity, which is expressed as % of inhibition or IC50 values in Table 1. The percentage of inhibition describes the percentage by which the inhibitor reduces the velocity/rate of 2-AG hydrolysis by ABHD6, and MGL or AEA hydrolysis by FAAH. […] The lower the IC50 values, the higher its inhibitory activity. A detailed description of the methods used to test inhibitory activity of compounds is given below.
Chain of hABHD6 (Q9BV23 whole entry): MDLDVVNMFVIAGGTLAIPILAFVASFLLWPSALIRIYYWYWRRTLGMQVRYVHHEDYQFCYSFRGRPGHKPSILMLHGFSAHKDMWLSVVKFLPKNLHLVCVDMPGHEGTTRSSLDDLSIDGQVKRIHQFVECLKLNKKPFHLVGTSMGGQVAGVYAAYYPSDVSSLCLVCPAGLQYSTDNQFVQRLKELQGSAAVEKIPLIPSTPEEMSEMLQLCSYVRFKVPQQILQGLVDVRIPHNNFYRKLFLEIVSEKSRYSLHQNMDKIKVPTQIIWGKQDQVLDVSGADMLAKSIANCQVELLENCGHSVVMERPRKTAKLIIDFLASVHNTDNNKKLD
Fluorescent Assays Protocol for hABHD6
Initial Fluorescent Inhibition Assay (3-Point)—
In each well of a 96-well plate 8 μL of membrane fraction containing full-length hABHD6 (1 μg total protein) was mixed with 168 μL of assay buffer (50 mM Tris-HCl, pH 7.6), and 20 μL of diluted compound (diluted in a dilution buffer consisting of 50% DMSO/50% assay buffer v/v). Each plate was incubated at RT for 15 minutes before adding 4 μL of 1 mM AHMMCE substrate (final concentration of 20 μM AHMMCE and final volume of 200 μL). The reaction was allowed to proceed for 1 hr at RT before the fluorescence was read at λex 360 nm and λem 460 nm and the inhibition calculated. Each experiment can test 8 compounds at three concentrations (usually 10 μM, 1 μM, and 100 nM).
IC50 Determination Assay (8-Point)—
A more detailed assay with an extended range tests compounds over 8 concentrations depending on the pre-determined approximate IC50 value from the initial screen. […] The assay was conducted in 96 well plate with each well containing the same reaction mixture detailed above in the 3-point screen. The relative fluorescence is quantified into coumarin produced by using a standard curve of HMMC in triplicate on each plate. Results are normalized to the negative control wells and the IC50 is determined using a non-linear regression curve fit in Prism, version 5 (GraphPad, San Diego, Calif.).

In experiment [2] the target is Rat ΔTM FAAH (Rattus norvegicus (Rat), UniProt P97612). In words: Fluorescent assay for rat ΔTM FAAH (AAMCA substrate). The settings on record: ΔTM rFAAH, AAMCA 20 μM; read-out: rFAAH Inhibition IC50. Here is the method:
Certain compounds were tested for their ABHD6 and dual ABHD6/MGL inhibitory activity, which is expressed as % of inhibition or IC50 values in Table 1. The percentage of inhibition describes the percentage by which the inhibitor reduces the velocity/rate of 2-AG hydrolysis by ABHD6, and MGL or AEA hydrolysis by FAAH. The IC50 is the concentration of the inhibitor, which results in 50% inhibition of the velocity/rate of 2-AG hydrolysis by ABHD6 or MGL. The IC50 is the concentration of the inhibitor, which results in 50% inhibition of the velocity/rate of AEA hydrolysis by FAAH. The lower the IC50 values, the higher its inhibitory activity. A detailed description of the methods used to test inhibitory activity of compounds is given below.
Example 79. Preparation of Transmembrane Domain-Deleted Rat FAAH (ΔTM rFAAH)
Rat ΔTM FAAH was expressed in E. coli cells and purified using the procedure disclosed by Patricelli et al. Biochemistry (1998) 37: 15177-15187.
Example 81. Fluorescent Assay Protocol for Rat ΔTM FAAH
The fluorescence reading at the 3 hour time point (linear enzyme kinetics) was used to calculate percent inhibition based on control assays without inhibitor present. All FAAH assays were performed in triplicate for each inhibitor concentration, and IC50 values determined using Prizm software (GraphPad Software, Inc.).

Experiment [3] deals with hMGL (Homo sapiens (Human), UniProt Q99685). Kind of experiment: Fluorescent assay for hMGL (AHMMCE substrate hydrolysis). The settings on record: E. coli lysate containing hMGL, read-out: hMGL Inhibition IC50. Here is the method:
as §1
Preparation of Human MAGL (hMAGL)
Fluorescent Assay Protocol for hMGL
This medium throughput assay involved a 96-well plate format in which hMGL activity was monitored by the hydrolysis of the substrate […] (AHMMCE) to form the fluorescent product, coumarin. […] Upon the addition of AHMMCE, the reaction was incubated at 25° C. for 120 min; fluorescence readings were taken every 15 min at 360 nm/460 nm (λexcitation/λemission) using a Synergy HT Plate Reader (Bio-Tek, Winooski, Vt.). […] External standards were used to convert relative fluorescence units to the amount of 4-methylcoumarin formed. All MGL assays were performed in triplicate for each inhibitor concentration, and IC50 values were calculated using Prizm software (GraphPad Software, Inc., San Diego, Calif.).

Chain of hMGL (Q99685 whole entry): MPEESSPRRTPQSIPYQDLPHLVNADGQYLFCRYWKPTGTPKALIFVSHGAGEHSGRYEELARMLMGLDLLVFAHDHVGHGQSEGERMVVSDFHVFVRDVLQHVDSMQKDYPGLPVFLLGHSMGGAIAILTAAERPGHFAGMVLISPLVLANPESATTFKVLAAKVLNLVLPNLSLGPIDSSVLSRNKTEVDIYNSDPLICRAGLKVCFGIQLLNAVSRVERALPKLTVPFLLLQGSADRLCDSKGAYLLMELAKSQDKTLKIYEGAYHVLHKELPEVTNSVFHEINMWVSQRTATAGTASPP
Chain of Rat ΔTM FAAH (P97612 30-579): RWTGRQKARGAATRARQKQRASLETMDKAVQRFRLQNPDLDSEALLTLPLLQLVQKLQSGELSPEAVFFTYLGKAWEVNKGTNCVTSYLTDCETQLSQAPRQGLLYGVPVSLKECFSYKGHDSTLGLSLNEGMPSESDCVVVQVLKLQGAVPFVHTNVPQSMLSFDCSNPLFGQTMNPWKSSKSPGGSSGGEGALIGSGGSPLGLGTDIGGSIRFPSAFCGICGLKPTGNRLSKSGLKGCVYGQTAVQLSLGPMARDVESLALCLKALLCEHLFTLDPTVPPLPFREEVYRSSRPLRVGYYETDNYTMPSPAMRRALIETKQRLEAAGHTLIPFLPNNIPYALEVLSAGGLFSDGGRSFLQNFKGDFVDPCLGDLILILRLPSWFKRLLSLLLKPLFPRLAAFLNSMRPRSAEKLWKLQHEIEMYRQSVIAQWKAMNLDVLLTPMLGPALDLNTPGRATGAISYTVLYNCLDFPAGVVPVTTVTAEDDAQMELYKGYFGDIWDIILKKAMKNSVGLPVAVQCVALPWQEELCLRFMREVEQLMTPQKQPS

Consider `O=C(OC(CF)CF)N1CCc2c(Br)cccc2C1` [Example 5, 1,3-Difluoropropan-2-yl 5-bromo-3,4-dihydroisoquinoline-2(1H)-carboxylate], for which the IC50 in experiment [1], in experiment [2] and in experiment [3] was more than 1000 nM each time.

`COc1cccc2c1CCN(C(=O)OC(C(F)(F)F)C(F)(F)F)C2` [Example 22, 1,1,1,3,3,3-Hexafluoropropan-2-yl 5-methoxy-3,4-dihydroisoquinoline-2(1H)-carboxylate]: the IC50 is 10 to 100 nM in experiment [1], more than 1000 nM in experiment [2] and more than 1000 nM in experiment [3].

`COc1ccc2c(c1)CCN(C(=O)OC(C(F)(F)F)C(F)(F)F)C2` [Example 23, 1,1,1,3,3,3-Hexafluoropropan-2-yl 6-methoxy-3,4-dihydroisoquinoline-2(1H)-carboxylate]: the values for the IC50 in experiment [1], in experiment [2] and in experiment [3] were 10 to 100 nM, more than 1000 nM and more than 1000 nM, respectively.

With `O=C(OC(C(F)(F)F)C(F)(F)F)N1Cc2ccc(-c3ccccc3)cc2C1` [Example 25, 1,1,1,3,3,3-Hexafluoropropan-2-yl 5-phenylisoindoline-2-carboxylate], the IC50 in experiment [1] was 10 to 100 nM; in experiment [2], more than 1000 nM; in experiment [3], more than 1000 nM.

`O=C(OC(C(F)(F)F)C(F)(F)F)N1CCc2c(cccc2-c2ccccc2)C1` [Example 28, 1,1,1,3,3,3-Hexafluoropropan-2-yl 5-phenyl-3,4-dihydroisoquinoline-2(1H)-carboxylate]: the figures for the IC50 in experiment [1], in experiment [2] and in experiment [3] were 100 to 1000 nM, more than 1000 nM and more than 1000 nM, respectively.

Consider `CN1CCN(c2ccc3c(c2)CN(C(=O)OC(C(F)(F)F)C(F)(F)F)C3)CC1` [Example 29, 1,1,1,3,3,3-Hexafluoropropan-2-yl 5-(4-methylpiperazin-1-yl)isoindoline-2-carboxylate], for which the IC50 in experiment [1] is 100 to 1000 nM; in experiment [2], more than 1000 nM; in experiment [3], more than 1000 nM.

Take `O=C(OC(C(F)(F)F)C(F)(F)F)N1Cc2ccc(N3CCCC3)cc2C1` [Example 30, 1,1,1,3,3,3-Hexafluoropropan-2-yl 5-(pyrrolidin-1-yl)isoindoline-2-carboxylate]: the IC50 is 10 to 100 nM in experiment [1], more than 1000 nM in experiment [2] and more than 1000 nM in experiment [3].

For the molecule `O=C(OC(C(F)(F)F)C(F)(F)F)N1Cc2ccc(N3CCS(=O)(=O)CC3)cc2C1` [Example 31, 1,1,1,3,3,3-Hexafluoropropan-2-yl 5-(1,1-dioxidothiomorpholino)isoindoline-2-carboxylate], the IC50 was 10 to 100 nM in experiment [1] and more than 1000 nM in experiment [2].

Regarding `O=C(OC(C(F)(F)F)C(F)(F)F)N1Cc2ccc(N3CCOCC3)cc2C1` [Example 32, 1,1,1,3,3,3-Hexafluoropropan-2-yl 5-morpholinoisoindoline-2-carboxylate], the IC50 was 10 to 100 nM in experiment [1], more than 1000 nM in experiment [2] and more than 1000 nM in experiment [3].

With `CC1(C)C2C(=O)N(OC(=O)N3CCc4c(Br)cccc4C3)C(=O)C21` (centres unmarked) [Example 35, 6,6-Dimethyl-2,4-dioxo-3-azabicyclo[3.1.0]hexan-3-yl 5-bromo-3,4-dihydroisoquinoline-2(1H)-carboxylate], the results for the IC50 in experiment [1], in experiment [2] and in experiment [3] were 10 to 100 nM, more than 1000 nM and more than 1000 nM, respectively.

Turning to `O=C1C2CC2C(=O)N1ON1CCc2c(Br)cccc2C1` (centres unmarked) [Example 37, 3-((5-Bromo-3,4-dihydroisoquinolin-2(1H)-yl)oxy)-3-azabicyclo[3.1.0]hexane-2,4-dione], the IC50 in experiment [1] was 100 to 1000 nM; in experiment [2], more than 1000 nM; in experiment [3], more than 1000 nM.

On to `COc1ccc2c(c1)CN(C(=O)ON1C(=O)C3C(C1=O)C3(C)C)C2` (centres unmarked) [Example 38, 6,6-Dimethyl-2,4-dioxo-3-azabicyclo[3.1.0]hexan-3-yl 5-methoxyisoindoline-2-carboxylate], for which the IC50 in experiment [1], in experiment [2] and in experiment [3] was more than 1000 nM each time.

Consider `CC1(C)C2C(=O)N(OC(=O)N3Cc4ccc(N5CCOCC5)cc4C3)C(=O)C21` (centres unmarked) [Example 39, 6,6-Dimethyl-2,4-dioxo-3-azabicyclo[3.1.0]hexan-3-yl 5-morpholinoisoindoline-2-carboxylate], for which the IC50 in experiment [1] is 10 to 100 nM; in experiment [2], more than 1000 nM; in experiment [3], more than 1000 nM.

For the molecule `O=C(O[C@H](CO)C(F)(F)F)N1CCc2c(Br)cccc2C1` [Example 40, (R)-1,1,1-trifluoro-3-hydroxypropan-2-yl 5-bromo-3,4-dihydroisoquinoline-2(1H)-carboxylate], the IC50 in experiment [1] was 10 to 100 nM; in experiment [2], more than 1000 nM; in experiment [3], more than 1000 nM.

Regarding `O=C(OC(C(F)(F)F)C(F)(F)F)N1CCc2c(cccc2OCCCF)C1` [Example 41, 1,1,1,3,3,3-Hexafluoropropan-2-yl 5-(3-fluoropropoxy)-3,4-dihydroisoquinoline-2(1H)-carboxylate], the IC50 is 10 to 100 nM in experiment [1], more than 1000 nM in experiment [2] and more than 1000 nM in experiment [3].

For `O=C(OC(C(F)(F)F)C(F)(F)F)N1Cc2ccc(OCCCF)cc2C1` [Example 42, 1,1,1,3,3,3-Hexafluoropropan-2-yl 5-(3-fluoropropoxy)isoindoline-2-carboxylate], the values for the IC50 in experiment [1], in experiment [2] and in experiment [3] were 10 to 100 nM, more than 1000 nM and more than 1000 nM, respectively.

As to `O=C(OC(C(F)(F)F)C(F)(F)F)N1Cc2ccc(OCC3CC3)cc2C1` [Example 43, 1,1,1,3,3,3-Hexafluoropropan-2-yl 5-(cyclopropylmethoxy)isoindoline-2-carboxylate], the IC50 in experiment [1] is 10 to 100 nM; in experiment [2] it was more than 1000 nM; in experiment [3], more than 1000 nM.

Turning to `O=C(OC(C(F)(F)F)C(F)(F)F)N1Cc2ccc(OCCN3CCOCC3)cc2C1` [Example 44, 1,1,1,3,3,3-Hexafluoropropan-2-yl 5-(2-morpholinoethoxy)isoindoline-2-carboxylate], the IC50 in experiment [1] is 100 to 1000 nM; in experiment [2], more than 1000 nM; in experiment [3], more than 1000 nM.

For the molecule `CN(C)CCOc1ccc2c(c1)CN(C(=O)OC(C(F)(F)F)C(F)(F)F)C2` [Example 46, 1,1,1,3,3,3-Hexafluoropropan-2-yl 5-(2-(dimethylamino)ethoxy)isoindoline-2-carboxylate], the values for the IC50 in experiment [1], in experiment [2] and in experiment [3] were 10 to 100 nM, more than 1000 nM and 10 to 100 nM, respectively.

For `O=C(OC(C(F)(F)F)C(F)(F)F)N1Cc2ccc(NCCN3CCOCC3)cc2C1` [Example 47, 1,1,1,3,3,3-Hexafluoropropan-2-yl 5-((2-morpholinoethyl)amino)isoindoline-2-carboxylate], the results for the IC50 in experiment [1], in experiment [2] and in experiment [3] were 10 to 100 nM, more than 1000 nM and more than 1000 nM, respectively.

In the case of `O=C(OC(C(F)(F)F)C(F)(F)F)N1Cc2ccc(OCCN3CCCCC3)cc2C1` [Example 48, 1,1,1,3,3,3-Hexafluoropropan-2-yl 5-(2-(piperidin-1-yl)ethoxy)isoindoline-2-carboxylate], the IC50 in experiment [1] is 10 to 100 nM; in experiment [2], more than 1000 nM; in experiment [3], 10 to 100 nM.

Source of the values: patent US10662159B2, “ABHD6 and dual ABHD6/MGL inhibitors and their uses” (MAKScientific, LLC, priority 2017, dated 2020).
